# Laboratory results as given in patent US7718684B2, “Methods and materials for assessing prostate cancer therapies and compounds” (The Regents of the University of California, priority 2004, dated 2010).
# What was measured:
# [1] = tested on: LNCaP cells infected with the empty vector; assay: In vitro growth of LNCaP vector cells in low androgen; type: cell-based, human; conditions: steroid-depleted
# [2] = target: AR transcription complex on the promoters of PSA and KLK2 in LNCaP cells (Homo sapiens, UniProt P10275, T878A)
# LNCaP-AR cells [3] = assay: In vitro growth of LNCaP-AR cells (low androgen / bicalutamide)
# [4] = tested on: prostate-specific antigen (PSA) produced by LNCaP cells; assay: PSA produced by LNCaP cells; type: cell-based, human
# LNCaP-AR cells [5] = assay: Microarray of induced genes in LNCaP-AR cells; type: cell-based, human
# [6] = tested on: LNCaP cells infected with the empty-vector control; assay: Microarray of induced genes in LNCaP control cells; type: cell-based, human; conditions: 10 μM
# [7] = tested on: PSA mRNA and protein expression in parental LAPC4 cells; assay: PSA expression in parental LAPC4 cells; conditions: androgen-starved
# [8] = tested on: PSA expression in LAPC4 cells expressing increased levels of AR; assay: PSA expression in LAPC4 cells with increased AR; conditions: androgen-starved
# AR LBD = conditions: cited from earlier work
# AR transcription complex on the promoters of PSA and KLK2 in LNCaP cells, sequence (P10275 whole entry T878A, one chain of several): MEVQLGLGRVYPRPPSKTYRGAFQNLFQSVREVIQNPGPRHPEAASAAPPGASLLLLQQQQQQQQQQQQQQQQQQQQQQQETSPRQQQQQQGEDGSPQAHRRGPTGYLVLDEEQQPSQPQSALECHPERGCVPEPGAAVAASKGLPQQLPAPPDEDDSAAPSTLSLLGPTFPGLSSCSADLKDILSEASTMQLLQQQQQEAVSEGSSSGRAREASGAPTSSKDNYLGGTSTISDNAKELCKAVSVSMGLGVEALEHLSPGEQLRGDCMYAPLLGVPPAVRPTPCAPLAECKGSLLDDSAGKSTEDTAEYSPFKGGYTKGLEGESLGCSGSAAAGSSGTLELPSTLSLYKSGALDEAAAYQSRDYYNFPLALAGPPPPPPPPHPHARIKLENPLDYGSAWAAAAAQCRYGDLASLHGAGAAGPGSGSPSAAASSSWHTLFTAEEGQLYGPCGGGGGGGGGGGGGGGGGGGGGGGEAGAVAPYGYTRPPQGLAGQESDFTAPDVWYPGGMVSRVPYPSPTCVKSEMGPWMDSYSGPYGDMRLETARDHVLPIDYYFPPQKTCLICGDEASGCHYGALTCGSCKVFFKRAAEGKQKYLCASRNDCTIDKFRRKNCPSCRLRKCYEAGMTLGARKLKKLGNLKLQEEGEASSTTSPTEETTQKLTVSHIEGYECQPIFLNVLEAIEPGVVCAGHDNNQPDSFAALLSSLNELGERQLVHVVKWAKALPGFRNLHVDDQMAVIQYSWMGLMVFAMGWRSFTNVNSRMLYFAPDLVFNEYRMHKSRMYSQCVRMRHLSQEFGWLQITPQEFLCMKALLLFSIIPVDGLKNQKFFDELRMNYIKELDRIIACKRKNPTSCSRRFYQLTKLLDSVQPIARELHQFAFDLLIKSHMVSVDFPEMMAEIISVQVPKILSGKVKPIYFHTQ
smiles,measurement,setting,value
"C[C@]1(O)CC[C@H]2[C@@H]3CCC4=CC(=O)CCC4=C3C=C[C@@]21C [Compound R1881, R1881]",concentration needed for growth in charcoal-stripped serum,[1],100 pM
same,recruitment of AR and polymerase II to promoters,[2],AR and polymerase II were recruited to both promoters regardless of AR level
same,lower concentration supporting growth versus vector cells,"LNCaP-AR cells [3]; charcoal-stripped serum, relative to vector cells",at least 80%
CC1(C)C(=O)N(c2ccc(C#N)c(C(F)(F)F)c2)C(=S)N1c1ccc(N=[N+]=[N-])cc1 [Compound 5],antagonist character,"[4]; LNCaP cells, PSA",full antagonists
same,IC50 for PSA expression compared with bicalutamide,"[4]; LNCaP cells, relative to bicalutamide",ten-fold lower
same,agonist and antagonist effects,[4]; initial screening and biological testing,best antagonist effects without any strong agonist effects
CC(O)(CS(=O)(=O)c1ccc(F)cc1)C(=O)Nc1ccc(C#N)c(C(F)(F)F)c1 (stereo not shown) [bicalutamide],probe sets induced,"LNCaP-AR cells [5]; 10 μM, 2-fold increase, P<0.05, 500 minimum expression",48 probe sets
same,subset of total androgen-regulated genes induced,LNCaP-AR cells [5]; of >600 androgen-regulated probe sets,< 10%
same,probe sets induced,[6],no elements were significantly upregulated
same,effect on PSA mRNA and protein expression,[7],typical antagonist activity
same,effect on PSA expression,[8],functioned as an agonist
same,growth in the presence of the antiandrogen,LNCaP-AR cells [3]; LNCaP-AR cells,resistant
CC1(C)C(=O)N(c2ccc(C#N)c(C(F)(F)F)c2)C(=S)N1CCCCO [RU59063],binding to AR LBD compared with drugs such as bicalutamide,AR LBD,more potent binders of the AR LBD
